The record followed here is US20080114007A1 (priority 2006, published 2008).

Chain of CSF-1R (P07333 20-972): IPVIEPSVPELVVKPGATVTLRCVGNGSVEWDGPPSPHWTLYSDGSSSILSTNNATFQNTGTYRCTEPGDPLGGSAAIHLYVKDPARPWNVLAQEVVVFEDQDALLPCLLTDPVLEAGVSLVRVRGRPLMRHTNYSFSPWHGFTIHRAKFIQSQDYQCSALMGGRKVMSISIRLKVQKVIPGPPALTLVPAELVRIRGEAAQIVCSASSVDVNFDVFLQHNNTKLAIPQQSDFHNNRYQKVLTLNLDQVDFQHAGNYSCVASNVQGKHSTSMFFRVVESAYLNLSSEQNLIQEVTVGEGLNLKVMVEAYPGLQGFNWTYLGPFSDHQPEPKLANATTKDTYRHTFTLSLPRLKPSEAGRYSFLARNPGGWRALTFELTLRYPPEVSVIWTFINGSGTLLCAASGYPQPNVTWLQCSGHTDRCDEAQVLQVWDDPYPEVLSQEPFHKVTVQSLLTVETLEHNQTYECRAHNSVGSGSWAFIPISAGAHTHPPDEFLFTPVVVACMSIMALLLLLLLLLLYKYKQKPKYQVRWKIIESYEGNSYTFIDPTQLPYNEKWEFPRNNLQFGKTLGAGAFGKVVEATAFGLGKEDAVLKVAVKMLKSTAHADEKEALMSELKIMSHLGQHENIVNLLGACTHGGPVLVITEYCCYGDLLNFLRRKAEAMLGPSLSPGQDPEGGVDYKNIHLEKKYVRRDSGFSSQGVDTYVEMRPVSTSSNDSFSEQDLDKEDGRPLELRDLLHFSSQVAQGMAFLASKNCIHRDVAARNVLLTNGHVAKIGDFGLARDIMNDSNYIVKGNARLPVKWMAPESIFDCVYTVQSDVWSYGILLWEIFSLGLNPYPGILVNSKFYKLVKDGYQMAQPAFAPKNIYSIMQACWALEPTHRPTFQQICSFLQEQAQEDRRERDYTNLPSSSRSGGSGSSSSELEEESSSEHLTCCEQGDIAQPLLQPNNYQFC

The assay has as its target CSF-1R (Homo sapiens, UniProt P07333). Briefly: Peptide (non-phosphorylated) assay, fluorescence polarization competition immunoassay. Format: biochemical. The following applies: 0.7 nM CSF-1R, 308 μM SYEGNSYTFIDPTQ peptide, 1 mM ATP, 80 min; mean of at least three determinations; read-out: c-fms Peptide IC50. On the procedure: The kinase reaction was initiated by adding 1 μL of 10 mM ATP in assay buffer. […] Positive and negative control wells were included on each plate, where 4% DMSO in assay buffer was substituted for the compound; in addition, positive control wells received 1.2 μL of 50 mM EDTA before the start of the reaction.
The plates were covered and incubated at room temperature for 80 min. Reactions were stopped by addition of 1.2 μL of 50 mM EDTA. Each well then received 10 μL of a 1:1:3 mixture of 10× anti-phosphotyrosine antibody, 10×PTK green tracer, and FP dilution buffer, respectively (Cat. # P2837, Invitrogen, Carlsbad, Calif.). The plates were covered, incubated for 30 min at room temperature, and the fluorescence polarization was read on an Analyst plate reader (Molecular Devices).
A general note: Polarisation of emitted light reports the rotation of a fluorescent probe.
For orientation: IC50 means the concentration that gives 50% inhibition. Take `CCCN1CCC(c2ccc(Nc3ncc4c(=O)c(C(=O)NOC)cn(-c5ccc6c(c5)CCC6)c4n3)cc2)CC1` [Cpd 298, 8-indan-5-yl-5-oxo-2-[4-(1-propyl-piperidin-4-yl)-phenylamino]-5,8-dihydro-pyrido[2,3-d]pyrimidine-6-carboxylic acid methoxy-amide]: the 50% inhibitory concentration (IC50) was 0.4 nM.

Consider `NC(=O)c1cn(-c2ccc3c(c2)CCC3)c2nc(Nc3ccc(N4CCC[C@H]4CO)cc3)ncc2c1=O` [Cpd 6, (S)-2-[4-(2-hydroxymethyl-pyrrolidin-1-yl)-phenylamino]-8-indan-5-yl-5-oxo-5,8-dihydro-pyrido[2,3-d]pyrimidine-6-carboxylic acid amide], for which the 50% inhibitory concentration (IC50) came out at 3.1 nM.

As to `CONC(=O)c1cn(-c2ccc3c(c2)CCC3)c2nc(Nc3cccc(C(=O)NCCN4CCOCC4)c3)ncc2c1=O` [Cpd 198, 8-indan-5-yl-2-[3-(2-morpholin-4-yl-ethylcarbamoyl)-phenylamino]-5-oxo-5,8-dihydro-pyrido[2,3-d]pyrimidine-6-carboxylic acid methoxy-amide], the 50% inhibitory concentration (IC50) turned out to be 4.2 nM.

Regarding `CONC(=O)c1cn(-c2ccc3c(c2)CCC3)c2nc(Nc3ccc(Cc4ccncc4)cc3)ncc2c1=O` [Cpd 173, 8-indan-5-yl-5-oxo-2-(4-pyridin-4-ylmethyl-phenylamino)-5,8-dihydro-pyrido[2,3-d]pyrimidine-6-carboxylic acid methoxy-amide], the IC50 worked out at 0.77 nM.

As for `CCONC(=O)c1cn(-c2ccc(CC)cc2)c2nc(Nc3ccc(C4CCN(CCO)CC4)cc3)ncc2c1=O` [Cpd 183, 8-(4-ethyl-phenyl)-2-{4-[1-(2-hydroxy-ethyl)-piperidin-4-yl]-phenylamino}-5-oxo-5,8-dihydro-pyrido[2,3-d]pyrimidine-6-carboxylic acid ethoxy-amide], the IC50 worked out at 0.4 nM.

For `CONC(=O)c1cn(-c2ccc3c(c2)CCC3)c2nc(Nc3ccc(C4CCN(C(C)=O)CC4)cc3)ncc2c1=O` [Cpd 69, 2-[4-(1-acetyl-piperidin-4-yl)-phenylamino]-8-indan-5-yl-5-oxo-5,8-dihydro-pyrido[2,3-d]pyrimidine-6-carboxylic acid methoxy-amide], the IC50 turned out to be 1.2 nM.

`CCc1ccc(-n2cc(C(=O)NOC)c(=O)c3cnc(Nc4ccc(CCN5CC(F)C5)cc4)nc32)cc1` [Cpd 265, 8-(4-ethyl-phenyl)-2-{4-[2-(3-fluoro-azetidin-1-yl)-ethyl]-phenylamino}-5-oxo-5,8-dihydro-pyrido[2,3-d]pyrimidine-6-carboxylic acid methoxy-amide]: the 50% inhibitory concentration (IC50) was found to be 0.57 nM.

For `CONC(=O)c1cn(-c2ccc3c(c2)CCC3)c2nc(Nc3ccc4[nH]ccc4c3)ncc2c1=O` [Cpd 287, 8-indan-5-yl-2-(1H-indol-5-ylamino)-5-oxo-5,8-dihydro-pyrido[2,3-d]pyrimidine-6-carboxylic acid methoxy-amide], the IC50 worked out at 0.9 nM.

For `CONC(=O)c1cn(-c2ccc3c(c2)CCC3)c2nc(Nc3ccc(CCc4ncn[nH]4)cc3)ncc2c1=O` [Cpd 190, 8-indan-5-yl-5-oxo-2-{4-[2-(1H-[1,2,4]triazol-3-yl)-ethyl]-phenylamino}-5,8-dihydro-pyrido[2,3-d]pyrimidine-6-carboxylic acid methoxy-amide], the concentration for half-maximal inhibition (IC50) came out at 4.2 nM.

Consider `CCONC(=O)c1cn(-c2ccc(C)c(C)c2)c2nc(Nc3ccc(CCN4CCN(C)CC4)cc3)ncc2c1=O` [Cpd 53, 8-(3,4-dimethyl-phenyl)-2-{4-[2-(4-methyl-piperazin-1-yl)-ethyl]-phenylamino}-5-oxo-5,8-dihydro-pyrido[2,3-d]pyrimidine-6-carboxylic acid ethoxy-amide], for which the 50% inhibitory concentration (IC50) was 0.5 nM.

Regarding `CONC(=O)c1cn(-c2ccc3c(c2)CCC3)c2nc(Nc3ccccc3)ncc2c1=O` [Cpd 300, 8-indan-5-yl-5-oxo-2-phenylamino-5,8-dihydro-pyrido[2,3-d]pyrimidine-6-carboxylic acid methoxy-amide], the concentration for half-maximal inhibition (IC50) stood at 1.5 nM.

On to `CONC(=O)c1cn(-c2ccc3c(c2)CCC3)c2nc(Nc3ccc(C4=CCN(C)CC4)cc3)ncc2c1=O` [Cpd 235, 8-indan-5-yl-2-[4-(1-methyl-1,2,3,6-tetrahydro-pyridin-4-yl)-phenylamino]-5-oxo-5,8-dihydro-pyrido[2,3-d]pyrimidine-6-carboxylic acid methoxy-amide], for which the IC50 was 0.54 nM.

On to `CCc1ccc(-n2cc(C(=O)NOC)c(=O)c3cnc(Nc4ccc5c(c4)N(C(C)=O)CC5)nc32)cc1` [Cpd 281, 2-(1-acetyl-2,3-dihydro-1H-indol-6-ylamino)-8-(4-ethyl-phenyl)-5-oxo-5,8-dihydro-pyrido[2,3-d]pyrimidine-6-carboxylic acid methoxy-amide], for which the concentration for half-maximal inhibition (IC50) worked out at 1.5 nM.

For `CONC(=O)c1cn(-c2ccc3c(c2)CCC3)c2nc(Nc3cccc(CCN4CCS(=O)(=O)CC4)c3)ncc2c1=O` [Cpd 205, 2-{3-[2-(1,1-dioxo-1λ^6-thiomorpholin-4-yl)-ethyl]-phenylamino}-8-indan-5-yl-5-oxo-5,8-dihydro-pyrido[2,3-d]pyrimidine-6-carboxylic acid methoxy-amide], the half-inhibitory concentration (IC50) turned out to be 1 nM.

Consider `CCONC(=O)c1cn(C2CCCC2)c2nc(Nc3ccc(CCN4CCCC4)cc3)ncc2c1=O` [Cpd 40, 8-cyclopentyl-5-oxo-2-[4-(2-pyrrolidin-1-yl-ethyl)-phenylamino]-5,8-dihydro-pyrido[2,3-d]pyrimidine-6-carboxylic acid ethoxy-amide], for which the concentration for half-maximal inhibition (IC50) was found to be 6.8 nM.

Turning to `CN1CCN(CCc2ccc(Nc3ncc4c(=O)c(C(N)=O)cn(-c5ccc(F)c(Cl)c5)c4n3)cc2)CC1` [Cpd 3, 8-(3-chloro-4-fluoro-phenyl)-2-{4-[2-(4-methyl-piperazin-1-yl)-ethyl]-phenylamino}-5-oxo-5,8-dihydro-pyrido[2,3-d]pyrimidine-6-carboxylic acid amide], the half-maximal inhibitory concentration (IC50) is 28 nM.

As to `CONC(=O)c1cn(-c2ccc3c(c2)CCC3)c2nc(Nc3ccc(OC4CCNCC4)cc3)ncc2c1=O` [Cpd 311, 8-indan-5-yl-5-oxo-2-[4-(piperidin-4-yloxy)-phenylamino]-5,8-dihydro-pyrido[2,3-d]pyrimidine-6-carboxylic acid methoxy-amide], the IC50 worked out at 0.3 nM.

With `CONC(=O)c1cn(-c2ccc3c(c2)CCC3)c2nc(Nc3cccc(C4(O)CCNC4)c3)ncc2c1=O` (stereo not drawn) [Cpd 274, 2-[3-(3-hydroxy-pyrrolidin-3-yl)-phenylamino]-8-indan-5-yl-5-oxo-5,8-dihydro-pyrido[2,3-d]pyrimidine-6-carboxylic acid methoxy-amide], the half-inhibitory concentration (IC50) came to 0.44 nM.

For the compound `CONC(=O)c1cn(-c2ccc(OC(F)(F)F)cc2)c2nc(Nc3ccc(C4CCN(CCO)CC4)cc3)ncc2c1=O` [Cpd 162, 2-{4-[1-(2-hydroxyethyl)-piperidin-4-yl]-phenylamino}-5-oxo-8-(4-trifluoromethoxy-phenyl)-5,8-dihydropyrido[2,3-d]pyrimidine-6-carboxylic acid methoxy-amide], the IC50 was 2.1 nM.

`COCCNCCc1ccc(Nc2ncc3c(=O)c(C(=O)NOC)cn(-c4ccc5c(c4)CCC5)c3n2)cc1` [Cpd 98, 8-indan-5-yl-2-{4-[2-(2-methoxy-ethylamino)-ethyl]-phenylamino}-5-oxo-5,8-dihydro-pyrido[2,3-d]pyrimidine-6-carboxylic acid methoxy-amide]: the IC50 is 1.4 nM.

Take `CONC(=O)c1cn(-c2ccc3c(c2)CCC3)c2nc(Nc3ccc(CCN4CCN(C(=O)C(F)(F)F)CC4)cc3)ncc2c1=O` [Cpd 148, 8-indan-5-yl-5-oxo-2-(4-{2-[4-(2,2,2-trifluoro-acetyl)-piperazin-1-yl]-ethyl}-phenylamino)-5,8-dihydro-pyrido[2,3-d]pyrimidine-6-carboxylic acid methoxy-amide]: the half-maximal inhibitory concentration (IC50) was found to be 1.2 nM.

For `CCONC(=O)c1cn(C2CCCCC2)c2nc(Nc3ccc(C4CCNCC4)cc3)ncc2c1=O` [Cpd 27, 8-cyclohexyl-5-oxo-2-(4-piperidin-4-yl-phenylamino)-5,8-dihydro-pyrido[2,3-d]pyrimidine-6-carboxylic acid ethoxy-amide], the 50% inhibitory concentration (IC50) came to 1.6 nM.

Regarding `CONC(=O)c1cn(-c2cccc(C(F)(F)F)c2)c2nc(Nc3ccc(C4CCN(C)CC4)cc3)ncc2c1=O`, the IC50 worked out at 0.8 nM.

With `CCONC(=O)c1cn(-c2ccc3c(c2)CCC3)c2nc(Nc3ccc(S(=O)(=O)N(C)C)cc3)ncc2c1=O` [Cpd 136, 2-(4-dimethylsulfamoyl-phenylamino)-8-indan-5-yl-5-oxo-5,8-dihydro-pyrido[2,3-d]pyrimidine-6-carboxylic acid ethoxy-amide], the IC50 amounted to 4.2 nM.

Consider `CCc1ccc(-n2cc(C(=O)NOC)c(=O)c3cnc(Nc4cccc(OC5CCCNC5)c4)nc32)cc1` (stereo not drawn) [Cpd 248, 8-(4-ethyl-phenyl)-5-oxo-2-[3-(piperidin-3-yloxy)-phenylamino]-5,8-dihydro-pyrido[2,3-d]pyrimidine-6-carboxylic acid methoxy-amide], for which the half-inhibitory concentration (IC50) came to 0.43 nM.

As to `CONC(=O)c1cn(-c2ccc3c(c2)CCC3)c2nc(Nc3ccc(C4CCN(CC(=O)O)CC4)cc3)ncc2c1=O` [Cpd 85, {4-[4-(8-indan-5-yl-6-methoxycarbamoyl-5-oxo-5,8-dihydro-pyrido[2,3-d]pyrimidin-2-ylamino)-phenyl]-piperidin-1-yl}-acetic acid], the IC50 is 2.2 nM.

In the case of `CCc1ccc(-n2cc(C(=O)NOC)c(=O)c3cnc(Nc4ccc5c(c4)CCN5C(C)=O)nc32)cc1` [Cpd 279, 2-(1-acetyl-2,3-dihydro-1H-indol-5-ylamino)-8-(4-ethyl-phenyl)-5-oxo-5,8-dihydro-pyrido[2,3-d]pyrimidine-6-carboxylic acid methoxy-amide], the half-maximal inhibitory concentration (IC50) was 0.3 nM.
